The target in assay [1] is HDAC6 (Homo sapiens (Human), UniProt Q9UBN7). The assay can be described thus: Tubulin acetylation cytoblot assay (A549 cells). In kind it is cell-based. The settings on record: 17-18 h, concentration for 50% induction of acetylated tubulin, read-out: Tub-ac EC50. As for the experimental part: Tubulin acetylation is a PD marker for HDAC6 inhibition. The extent of tubulin acetylation represents the inhibitory effect on HDAC6.
Novel compounds were tested for their ability to inhibit HDAC6 using a cell-based deacetylation assay. Tubulin acetylation was detected by the anti-acetylated tubulin antibody (Sigma) and horse radish peroxidase (HRP) conjugated secondary antibody (KangChen Bio. Tech.). […] 20 μl of diluted compound solution was transferred to the cell culture plate and incubated for 17-18 h. After medium removal and fixation by formaldehyde (3.7% paraformaldehyde in TBS), the cells in the plates were treated with 180 μl of −20° C. MeOH and incubated for 5 min at rt. The cell lysis was incubated with 75 μl of primary anti-acetylated tubulin antibody and secondary HRP conjugated antibody solution (1:750 anti-acetylated tubulin, 1:750 HRP conjugated anti-mouse IgG in antibody dilution buffer not containing sodium azide) for 4 h at 4° C. By adding the HRP substrate, enhanced chemiluminescence (ECL) reagent (GE Healthcare) generated luminescence corresponding to the level of tubulin acetylation. So that 75 μl of ECL was added into the wells and the luminescence from each well was immediately quantified by the plate reader. Based on the luminescence reading, the IC50s against HDAC6 of the tested compounds were calculated by plotting the curve with XLfit4.0 software. Inhibition %=[signal(sample)−Mean(bottom)]*100/[Mean(top)−Mean(bottom)]

In assay [2] the target is recombinant human HDAC8 (Homo sapiens (Human), UniProt Q9BY41). As to the kind of experiment: HDAC8 inhibition: recombinant HDAC8 fluorometric assay. In kind it is biochemical. Conditions: recombinant human HDAC8, substrate Ac-Arg-His-Lys-Lys(ε-acetyl)-AMC. As for the experimental part: A competitive inhibitory assay of HDAC8 was carried out by using recombinant HDAC8 and a commercial substrate Ac-Arg-His-Lys-Lys(ε-acetyl)-AMC.
Chain of recombinant human HDAC8 (Q9BY41 whole entry): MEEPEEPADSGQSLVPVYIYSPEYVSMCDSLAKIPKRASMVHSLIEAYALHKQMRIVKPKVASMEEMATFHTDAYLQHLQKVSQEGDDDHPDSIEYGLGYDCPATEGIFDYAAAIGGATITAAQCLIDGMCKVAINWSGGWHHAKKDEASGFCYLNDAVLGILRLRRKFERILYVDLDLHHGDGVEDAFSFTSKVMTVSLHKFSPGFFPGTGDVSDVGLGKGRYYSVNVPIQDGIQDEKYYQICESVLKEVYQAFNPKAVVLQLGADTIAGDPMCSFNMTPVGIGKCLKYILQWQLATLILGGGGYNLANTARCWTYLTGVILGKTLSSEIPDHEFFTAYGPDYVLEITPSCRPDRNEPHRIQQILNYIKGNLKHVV
Compounds were tested for their ability to inhibit histone deacetylase 8 using an in vitro deacetylation assay. The enzyme source for this assay was recombinant human HDAC8 protein expressed and purified from insect cells. […] The substrate consisted of a commercial product Ac-Arg-His-Lys-Lys(ε-acetyl)-AMC (substrate is available from Cayman Chemical). […] In a detailed procedure, 8 μl of HDAC8 enzyme solution (0.125 μg/μl) was transferred to assay plates (CORNING 3676). 1 μl of half-log diluted compounds were added into wells and incubated for 15 min at rt. After that, 8 μl of substrate solution was transferred to the wells and incubated for 30 min at rt. After deacetylation of the substrate by incubation with HDAC8 enzyme, subsequent exposure to a developing reagent produced a fluorophore that was directly proportional to the level of deacetylation. So 4 μl of developer regent (Cayman 10006394) was added into the wells in the assay plates and incubated for 15 min. The fluorescence signal was measured by a FlexStation3 plate reader (excitation wave length 340-360 nm; emission wave length 440-465 nm). The IC50 was calculated after normalization and curve fitting using XLfit4.0 software. Inhibition %=[Mean(top)−signal(sample)]*100/[Mean(top)−Mean(bottom)].

The subject of assay [3] is p21 promoter-luciferase construct. The assay can be described thus: p21 reporter gene induction in HeLa cells transfected with p21 promoter-luciferase construct. Conditions: for p21 RP3: relative gene level of p21 induced compared to MS275 at 3 μM; for p21 RP10: relative level of p21 induced compared to MS275 at 10 μM; for p21 RP30: relative level of p21 induced compared to MS275 at 30 μM. It is filed as cell-based. As for the experimental part:
As a surrogate for in-cell HDAC1/2/3 inhibition, p21 induction was used as a counterscreen to evaluate the selectivity of the compounds in the present invention toward HDAC6 or HDAC8.
The novel compounds of the present invention were tested for their ability to induce p21 gene expression using a reporter gene assay involving HeLa cells transfected with a p21 promoter-luciferase construct. The p21 promoter contained the Sp1/Sp3 binding site for HDAC but not the upstream p53 binding site. Briefly, the day before transfection, HeLa cells were seeded at 11,000 cells/well in a 96-well culture plate and incubated at 37° C. in 5% CO2 overnight. A transfection media was prepared prior to transfection according to the following procedure: (1) 5 μl serum-free DMEM, 0.15 μl Fugene 6 reagent, 40 ng p21-luc, 10 ng GFP were mixed gently and incubated at rt for 30 minutes; (2), then 98 μl DMEM (with 10% FBS, 1% penicillin and streptomycin) was added to the DNA: Fugene 6 reagent complex and mixed gently. For transfection, the medium was removed and replaced with 100 μl/well transfection media which was prepared according to the procedure above. After incubating the cells for 24 hours at 37° C. in 5% CO2, fresh media and test compounds were added to the wells and the cells further incubated for 15 hours at 37° C. in 5% CO2. Cells were lysed by adding 80 μl/well of a cell culture lysis reagent (Promega). […] 100 μl luciferase assay reagent (Promega) was then added to every 20 μl cell lysate for luminometer detection. […] Induction activity for specific representative compounds can be found in Table 3.

pEC50, pIC50: −log10 of the molar value.

Chain of HDAC6 (Q9UBN7 whole entry): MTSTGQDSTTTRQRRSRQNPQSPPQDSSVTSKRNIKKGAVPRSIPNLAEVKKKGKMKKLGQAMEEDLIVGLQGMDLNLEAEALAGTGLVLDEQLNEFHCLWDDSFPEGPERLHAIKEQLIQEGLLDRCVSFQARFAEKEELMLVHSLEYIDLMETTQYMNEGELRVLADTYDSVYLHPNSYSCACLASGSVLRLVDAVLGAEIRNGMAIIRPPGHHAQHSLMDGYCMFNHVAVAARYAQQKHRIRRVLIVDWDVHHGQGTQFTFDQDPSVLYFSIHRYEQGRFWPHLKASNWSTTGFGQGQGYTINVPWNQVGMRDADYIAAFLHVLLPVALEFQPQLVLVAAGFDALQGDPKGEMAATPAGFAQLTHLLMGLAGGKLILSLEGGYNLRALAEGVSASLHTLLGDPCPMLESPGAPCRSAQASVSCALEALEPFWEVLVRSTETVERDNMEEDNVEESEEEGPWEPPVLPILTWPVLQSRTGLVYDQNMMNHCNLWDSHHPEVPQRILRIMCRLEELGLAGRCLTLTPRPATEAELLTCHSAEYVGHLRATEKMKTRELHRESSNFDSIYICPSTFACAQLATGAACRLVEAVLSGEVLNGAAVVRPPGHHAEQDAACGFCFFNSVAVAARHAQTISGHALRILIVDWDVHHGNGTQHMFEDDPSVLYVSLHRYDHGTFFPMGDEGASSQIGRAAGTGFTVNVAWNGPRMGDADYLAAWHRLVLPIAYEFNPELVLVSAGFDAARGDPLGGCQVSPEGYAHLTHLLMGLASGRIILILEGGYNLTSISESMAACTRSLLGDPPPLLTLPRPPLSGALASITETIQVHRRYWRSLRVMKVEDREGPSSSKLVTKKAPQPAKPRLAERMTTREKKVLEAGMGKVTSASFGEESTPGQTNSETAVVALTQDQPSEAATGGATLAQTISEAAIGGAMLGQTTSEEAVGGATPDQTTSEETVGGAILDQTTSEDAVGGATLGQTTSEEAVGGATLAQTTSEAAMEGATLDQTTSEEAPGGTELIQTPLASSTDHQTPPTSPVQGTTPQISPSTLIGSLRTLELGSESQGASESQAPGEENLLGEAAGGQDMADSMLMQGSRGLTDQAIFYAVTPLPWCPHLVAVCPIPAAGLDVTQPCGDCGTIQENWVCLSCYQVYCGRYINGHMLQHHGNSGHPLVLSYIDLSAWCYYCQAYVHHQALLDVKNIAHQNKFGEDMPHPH

As usually defined, the pEC50 is −log10 of the EC50, conventionally taken in molar units. Usually pIC50 stands for −log10 of the IC50, conventionally taken in molar units. In the case of `O=C(NO)c1ccc2c(c1)CC(Nc1ccc(Br)cc1)CC2` (centres unmarked) [Example 2, 7-(4-bromo-phenylamino)-5,6,7,8-tetrahydro-naphthalene-2-carboxylic acid hydroxyamide], the pEC50 in assay [1] is 5.26. For the same compound, the pIC50 in assay [2] is 6.17. In assay [3], the “p21 RP3” value is reported as 0.26, the “p21 RP10” value is −0.06 and the “p21 RP30” value was −0.04.

With `O=C(NO)c1ccc2c(c1)CC(Nc1ccc([N+](=O)[O-])cc1)CC2` (centres unmarked) [Example 3, 7-(4-nitro-phenylamino)-5,6,7,8-tetrahydro-naphthalene-2-carboxylic acid hydroxyamide], the negative logarithm of the EC50 (pEC50) in assay [1] is 5.73. For the same compound, in assay [2], the pIC50 is 5.43. Further, in assay [3], the “p21 RP3” value amounted to 0.08, the “p21 RP10” value was −0.08 and the “p21 RP30” value is given as −0.06.

On to `O=C(NO)c1ccc2c(c1)CC(Nc1ccccn1)CC2` (centres unmarked) [Example 5, 7-(Pyridin-2-ylamino)-5,6,7,8-tetrahydro-naphthalene-2-carboxylic acid hydroxyamide], for which, in assay [2], the pIC50 was 5.54.

As to `O=C(NO)c1ccc2c(c1)CC(Nc1ccc([N+](=O)[O-])cn1)CC2` (centres unmarked) [Example 6, 7-(5-Nitro-pyridin-2-ylamino)-5,6,7,8-tetrahydro-naphthalene-2-carboxylic acid hydroxyamide], the negative logarithm of the EC50 (pEC50) in assay [1] is 5.68. Also, the pIC50 in assay [2] is 6.03. Also, in assay [3], the “p21 RP3” value worked out at 0.18, the “p21 RP10” value came to 0.03 and the “p21 RP30” value is given as −0.01.

On to `O=C(NO)c1ccc2c(c1)CC(Nc1nccc(C(F)(F)F)n1)CC2` (centres unmarked) [Example 8, 7-(4-Trifluoromethyl-pyrimidin-2-ylamino)-5,6,7,8-tetrahydro-naphthalene-2-carboxylic acid hydroxyamide], for which, in assay [1], the pEC50 is 6.08. The pIC50 in assay [2] was 6.52. Further, in assay [3], the “p21 RP3” value is listed as −0.12, the “p21 RP10” value is reported as −0.06 and the “p21 RP30” value is given as −0.19.

With `CCOc1cc(C)nc(NC2CCc3ccc(C(=O)NO)cc3C2)n1` (centres unmarked) [Example 9, 7-(4-Ethoxy-6-methyl-pyrimidin-2-ylamino)-5,6,7,8-tetrahydro-naphthalene-2-carboxylic acid hydroxyamide], the pEC50 in assay [1] was 5.77. Moreover, the pIC50 in assay [2] is 6.54. In assay [3], the “p21 RP3” value is given as −0.21, the “p21 RP10” value is recorded as −0.03 and the “p21 RP30” value is −0.10.

Take `Cc1ccc(-c2ccnc(NC3CCc4ccc(C(=O)NO)cc4C3)n2)cc1` (centres unmarked) [Example 11, 7-(4-p-Tolyl-pyrimidin-2-ylamino)-5,6,7,8-tetrahydro-naphthalene-2-carboxylic acid hydroxyamide]: the pEC50 in assay [1] was 5.29. Besides, in assay [2], the pIC50 was 6.10. Moreover, in assay [3], the “p21 RP3” value is reported as −0.13, the “p21 RP10” value is given as −0.18 and the “p21 RP30” value is given as −0.18.

`O=C(NO)c1ccc2c(c1)CC(Nc1nccc(-c3ccc(Oc4ccccc4)cc3)n1)CC2` (centres unmarked) [Example 23, 7-[4-(4-Phenoxy-phenyl)-pyrimidin-2-ylamino]-5,6,7,8-tetrahydro-naphthalene-2-carboxylic acid hydroxyamide]: in assay [2], the pIC50 is 5.84. In addition, in assay [3], the “p21 RP3” value is 0.30, the “p21 RP10” value came to 0.00 and the “p21 RP30” value is listed as −0.10.

Regarding `O=C(NO)c1ccc2c(c1)CC(Nc1nccc(-c3ccc4ccccc4c3)n1)CC2` (centres unmarked) [Example 33, 7-(4-Naphthalen-2-yl-pyrimidin-2-ylamino)-5,6,7,8-tetrahydro-naphthalene-2-carboxylic acid hydroxyamide], in assay [2], the pIC50 was 5.42. In assay [3], the “p21 RP3” value came to 0.19, the “p21 RP10” value is on record as −0.20 and the “p21 RP30” value is −0.25.

Turning to `O=C(/C=C/c1cccnc1)NC1CCc2ccc(C(=O)NO)cc2C1` (centres unmarked) [Example 37, 7-((E)-3-Pyridin-3-yl-acryloylamino)-5,6,7,8-tetrahydro-naphthalene-2-carboxylic acid hydroxyamide], the pIC50 in assay [2] is 6.00. For the same compound, in assay [3], the “p21 RP3” value was −0.18 and the “p21 RP10” value is given as −0.05.

Regarding `O=C(NO)c1ccc2c(c1)CC(NS(=O)(=O)c1cccc(Cl)c1)CC2` (centres unmarked) [Example 42, 7-(3-Chloro-benzenesulfonylamino)-5,6,7,8-tetrahydro-naphthalene-2-carboxylic acid hydroxyamide], in assay [2], the pIC50 was 6.80.

Turning to `O=C(NO)c1cc2c(cc1F)CCC(Nc1ncccn1)C2` (centres unmarked) [Example 49, 3-Fluoro-7-(pyrimidin-2-ylamino)-5,6,7,8-tetrahydro-naphthalene-2-carboxylic acid hydroxyamide], the pEC50 in assay [1] is 5.37. In assay [3], the “p21 RP3” value amounted to 0.50, the “p21 RP10” value came to 0.08 and the “p21 RP30” value was 0.00.

For the compound `O=C(NO)c1ccc2c(c1)CC(Nc1nccc(-c3cccnc3)n1)CN2` (centres unmarked) [Example 53], the pEC50 in assay [1] is 4.93. In assay [3], the “p21 RP3” value was 0.18, the “p21 RP10” value is on record as 0.03 and the “p21 RP30” value is 0.02.

For `O=C(NO)c1ccc2c(c1)CC(NS(=O)(=O)c1ccc(Cl)cc1)CN2` (centres unmarked) [Example 60, 3-(4-Chloro-benzenesulfonylamino)-1,2,3,4-tetrahydro-quinoline-6-carboxylic acid hydroxyamide], the pIC50 in assay [2] is 5.84. Besides, in assay [3], the “p21 RP3” value is recorded as 0.46, the “p21 RP10” value stood at 0.10 and the “p21 RP30” value was 0.04.

In the case of `O=C(NO)c1ccc2c(c1)CC(NS(=O)(=O)c1cccc(Cl)c1)CN2` (centres unmarked) [Example 61, 3-(3-Chloro-benzenesulfonylamino)-1,2,3,4-tetrahydro-quinoline-6-carboxylic acid hydroxyamide], the negative logarithm of the IC50 (pIC50) in assay [2] was 6.01. In assay [3], the “p21 RP3” value was 0.21, the “p21 RP10” value was 0.07 and the “p21 RP30” value is recorded as 0.04.

Turning to `O=C(NO)c1ccc2c(c1)CC(NS(=O)(=O)c1cccc(F)c1)CN2` (centres unmarked) [Example 62, 3-(3-Fluoro-benzenesulfonylamino)-1,2,3,4-tetrahydro-quinoline-6-carboxylic acid hydroxyamide], the negative logarithm of the IC50 (pIC50) in assay [2] was 5.94. For the same compound, in assay [3], the “p21 RP3” value is 0.13, the “p21 RP10” value stood at 0.02 and the “p21 RP30” value was determined as 0.01.

With `O=C(NO)c1ccc2c(c1)CC(NS(=O)(=O)c1cccc(OC(F)(F)F)c1)CN2` (centres unmarked) [Example 63, 3-(3-Trifluoromethoxy-benzenesulfonylamino)-1,2,3,4-tetrahydro-quinoline-6-carboxylic acid hydroxyamide], in assay [2], the pIC50 is 5.79. In assay [3], the “p21 RP3” value is recorded as 0.11, the “p21 RP10” value was found to be 0.04 and the “p21 RP30” value turned out to be 0.01.

On to `COc1ccc(S(=O)(=O)NC2CNc3ccc(C(=O)NO)cc3C2)cc1OC` (centres unmarked) [Example 64, 3-(3,4-Dimethoxy-benzenesulfonylamino)-1,2,3,4-tetrahydro-quinoline-6-carboxylic acid hydroxyamide], for which the pIC50 in assay [2] is 5.91. For the same compound, in assay [3], the “p21 RP3” value is reported as −0.02, the “p21 RP10” value turned out to be 0.06 and the “p21 RP30” value amounted to 0.04.

The values are drawn from patent US8716285B2, “N-hydroxy-benzamids for the treatment of cancer” (Hoffmann-La Roche Inc., priority 2010, dated 2014).
